According to paper PMC12664123, “Exploring Nirmatrelvir Derivatives Through P2 Substituent Modifications and Warhead Innovations Targeting the Main Protease of SARS‐CoV‐2” (Archiv Der Pharmazie, 2025):

Tests used:
SARS-CoV-2 M^pro [1] = molecular target: T1, SARS-CoV-2 M^pro (Severe acute respiratory syndrome coronavirus 2, UniProt P0DTD1); assay: Determination of the inhibition constants (Ki) for SARS-CoV-2 Mpro, Morrison equation, QS1 fluorogenic substrate; assay type: biochemical; conditions: for Ki / Biological Activity (pKi): M^pro 25 nM, QS1 20 µM; for Ki: 30 min preincubation at 37°C, pH 7.2; for Biological Activity (pKi): supplement table, 30 min preincubation at 37 °C; for fold more potent than compound 22 / ΔpK i relative to oxime analog 22: warhead exchange, vs compound 22
WT SARS-CoV-2 Mpro = WT SARS-CoV-2 Mpro (Severe acute respiratory syndrome coronavirus 2, UniProt P0DTD1); assay: Jump-dilution assay for reversibility of inhibition; assay type: biochemical; conditions: for mechanism of inhibition (reversibility): incubated 30 min at 100 nM M^pro and 200 nM inhibitor, 10-fold dilution, followed 30 min; for residual enzyme activity after jump dilution: 10-fold dilution to 10 nM M^pro, 20 nM inhibitor
[2] = Metabolic stability against liver microsomes, loss of parent compound by HPLC-UV; conditions: 37°C; for remaining parent compound after 480 min: rat liver microsomes 0.2 mg/mL, NADPH, 100 µM compound, 480 min (8 h); for metabolic stability toward liver microsomes (in words): rat liver microsomes, up to 480 min
SARS-CoV-2 M^pro [3] = molecular target: T1, SARS-CoV-2 M^pro; assay: Determination of Kinact/KI for time-dependent (irreversible) inhibitors, progress curves; assay type: biochemical; conditions: for kinact/KI: read-out: Kinact/KI (supplement table)

Structure (SMILES) | Ki (SARS-CoV-2 M^pro [1]) [nM] | Biological Activity (pKi) (SARS-CoV-2 M^pro [1]) | other results
CC(C)(C)[C@H](NC(=O)C(F)(F)F)C(=O)N1C[C@H](C2CCCCC2)C[C@H]1C(=O)N[C@H](C=NO)C[C@@H]1CCNC1=O [Compound 27, (2S,4S)−4‐Cyclohexyl‐1‐{(S)−3,3‐Dimethyl‐2‐(2,2,2‐Trifluoroacetamido)Butanoyl}‐N‐[(S)−1‐(Hydroxyimino)−3‐[(S)−2‐Oxopyrrolidin‐3‐yl]Propan‐2‐yl]Pyrrolidine‐2‐Carboxamide] | 100 | 7.0 ± 0.02 | –
C=CCO[C@@H]1C[C@@H](C(=O)N[C@H](C=NO)C[C@@H]2CCNC2=O)N(C(=O)[C@@H](NC(=O)C(F)(F)F)C(C)(C)C)C1 [Compound 24, (2S,4R)−4‐(Allyloxy)−1‐{(S)−3,3‐Dimethyl‐2‐(2,2,2‐Trifluoroacetamido)Butanoyl}‐N‐[(S)−1‐(Hydroxyimino)−3‐[(S)−2‐Oxopyrrolidin‐3‐yl]Propan‐2‐yl]Pyrrolidine‐2‐Carboxamide] | 50.1 | 7.3 ± 0.08 | –
C#CCO[C@@H]1C[C@@H](C(=O)N[C@H](C=NO)C[C@@H]2CCNC2=O)N(C(=O)[C@@H](NC(=O)C(F)(F)F)C(C)(C)C)C1 [Compound 25, (2S,4R)−1‐{(S)−3,3‐Dimethyl‐2‐(2,2,2‐Trifluoroacetamido)Butanoyl}‐N‐[(S)−1‐(Hydroxyimino)−3‐[(S)−2‐Oxopyrrolidin‐3‐yl]Propan‐2‐yl]−4‐(Prop‐2‐yn‐1‐Yloxy)Pyrrolidine‐2‐Carboxamide] | 31.6 | 7.5 ± 0.04 | –
CO[C@@H]1C[C@@H](C(=O)N[C@H](/C=C(\F)S(=O)(=O)c2ccccc2)C[C@@H]2CCNC2=O)N(C(=O)[C@@H](NC(=O)C(F)(F)F)C(C)(C)C)C1 [Compound 30, (2S,4R)−1‐{(S)−3,3‐Dimethyl‐2‐(2,2,2‐Trifluoroacetamido)Butanoyl}‐N‐[(S,E)−4‐Fluoro‐1‐((S)−2‐Oxopyrrolidin‐3‐yl)−4‐(Phenylsulfonyl)but‐3‐en‐2‐yl]−4‐Methoxypyrrolidine‐2‐Carboxamide] | 7.94 | 8.1 ± 0.01 | fold more potent than compound 22 (SARS-CoV-2 M^pro [1]): ~20 fold; ΔpK i relative to oxime analog 22 (SARS-CoV-2 M^pro [1]): 1.3; mechanism of inhibition (reversibility) (WT SARS-CoV-2 Mpro): reversible; remaining parent compound after 480 min [2]: ~100%
CO[C@@H]1C[C@@H](C(=O)N[C@H](C#N)C[C@@H]2CCNC2=O)N(C(=O)[C@@H](NC(=O)C(F)(F)F)C(C)(C)C)C1 [Compound 31, (2S,4R)‐N‐[(S)−1‐Cyano‐2‐[(S)−2‐Oxopyrrolidin‐3‐yl]Ethyl]−1‐{(S)−3,3‐Dimethyl‐2‐(2,2,2‐Trifluoroacetamido)Butanoyl}−4‐Methoxypyrrolidine‐2‐Carboxamide] | 1.58 | 8.8 ± 0.01 | fold more potent than compound 22 (SARS-CoV-2 M^pro [1]): 100 fold; ΔpK i relative to oxime analog 22 (SARS-CoV-2 M^pro [1]): 2.0; remaining parent compound after 480 min [2]: ~100%
CC(=O)N[C@@H]1C[C@@H](C(=O)N[C@H](C=NO)C[C@@H]2CCNC2=O)N(C(=O)[C@@H](NC(=O)C(F)(F)F)C(C)(C)C)C1 [Compound 28, (2S,4R)−4‐Acetamido‐1‐{(S)−3,3‐Dimethyl‐2‐(2,2,2‐Trifluoroacetamido)Butanoyl}‐N‐[(S)−1‐(Hydroxyimino)−3‐[(S)−2‐Oxopyrrolidin‐3‐yl]Propan‐2‐yl]Pyrrolidine‐2‐Carboxamide] | 100 | 7.0 ± 0.03 | –
CO[C@@H]1C[C@@H](C(=O)N[C@H](C=NO)C[C@@H]2CCNC2=O)N(C(=O)[C@@H](NC(=O)C(F)(F)F)C(C)(C)C)C1 [Compound 22, (2S,4R)−1‐{(S)−3,3‐Dimethyl‐2‐(2,2,2‐Trifluoroacetamido)butanoyl}‐N‐[(S)−1‐(Hydroxyimino)−3‐[(S)−2‐Oxopyrrolidin‐3‐yl]Propan‐2‐yl]−4‐Methoxypyrrolidine‐2‐Carboxamide] | 158 | 6.8 ± 0.01 | mechanism of inhibition (reversibility) (WT SARS-CoV-2 Mpro): reversible; remaining parent compound after 480 min [2]: ca. 60%
CC(C)(C)[C@H](NC(=O)C(F)(F)F)C(=O)N1C[C@H](c2ccccc2)C[C@H]1C(=O)N[C@H](C=NO)C[C@@H]1CCNC1=O [Compound 23, (2S,4S)−1‐{(S)−3,3‐Dimethyl‐2‐(2,2,2‐Trifluoroacetamido)Butanoyl}‐N‐[(S)−1‐(Hydroxyimino)−3‐[(S)−2‐Oxopyrrolidin‐3‐yl]Propan‐2‐yl]−4‐Phenylpyrrolidine‐2‐Carboxamide] | 50.1 | 7.3 ± 0.01 | –
CO[C@@H]1C[C@@H](C(=O)N[C@H](/C=C/S(=O)(=O)c2ccccc2)C[C@@H]2CCNC2=O)N(C(=O)[C@@H](NC(=O)C(F)(F)F)C(C)(C)C)C1 [Compound 32, (2S,4R)−1‐{(S)−3,3‐Dimethyl‐2‐(2,2,2‐Trifluoroacetamido)butanoyl}−4‐Methoxy‐N‐[(S,E)−1‐((S)−2‐Oxopyrrolidin‐3‐yl)−4‐(Phenylsulfonyl)but‐3‐en‐2‐yl]Pyrrolidine‐2‐Carboxamide] | – | – | kinact/KI (SARS-CoV-2 M^pro [3]): 4400 M⁻¹ s⁻¹; residual enzyme activity after jump dilution (WT SARS-CoV-2 Mpro): very low residual enzyme activity; mechanism of inhibition (reversibility) (WT SARS-CoV-2 Mpro): irreversible
CC(C)(C)[C@H](NC(=O)C(F)(F)F)C(=O)N1C[C@H](c2ccccc2)C[C@H]1C(=O)N[C@H](C#N)C[C@@H]1CCNC1=O [Compound 34, (2S,4S)‐N‐[(S)−1‐Cyano‐2‐[(S)−2‐Oxopyrrolidin‐3‐yl]Ethyl]−1‐{(S)−3,3‐Dimethyl‐2‐(2,2,2‐Trifluoroacetamido)Butanoyl}−4‐Phenylpyrrolidine‐2‐Carboxamide] | 1.26 | 8.9 ± 0.01 | metabolic stability toward liver microsomes (in words) [2]: comparable stability to the initial prototype 22
CC(C)(C)[C@H](NC(=O)C(F)(F)F)C(=O)N1C[C@H](OCc2ccccc2)C[C@H]1C(=O)N[C@H](C=NO)C[C@@H]1CCNC1=O [Compound 29, (2S,4R)−4‐(Benzyloxy)−1‐{(S)−3,3‐Dimethyl‐2‐(2,2,2‐Trifluoroacetamido)Butanoyl}‐N‐[(S)−1‐(Hydroxyimino)−3‐[(S)−2‐Oxopyrrolidin‐3‐yl]Propan‐2‐yl]Pyrrolidine‐2‐Carboxamide] | 200 | 6.7 ± 0.02 | –
COc1ccc(C(=O)ON=C[C@H](C[C@@H]2CCNC2=O)NC(=O)[C@@H]2C[C@@H](OC)CN2C(=O)[C@@H](NC(=O)C(F)(F)F)C(C)(C)C)cc1 [Compound 33, (2S,4R)−1‐{(S)−3,3‐Dimethyl‐2‐(2,2,2‐Trifluoroacetamido)Butanoyl}−4‐Methoxy‐N‐[(S)−1‐[((4‐Methoxybenzoyl)Oxy)Imino]−3‐[(S)−2‐Oxopyrrolidin‐3‐yl]Propan‐2‐yl]Pyrrolidine‐2‐Carboxamide] | – | – | fold higher reactivity than the vinyl sulfone (32) (SARS-CoV-2 M^pro [3]; Kinact/KI of 33 vs 32): ~20 fold; kinact/KI (SARS-CoV-2 M^pro [3]): 77000 M⁻¹ s⁻¹; residual enzyme activity after jump dilution (WT SARS-CoV-2 Mpro): very low residual enzyme activity; mechanism of inhibition (reversibility) (WT SARS-CoV-2 Mpro): irreversible; metabolic stability toward liver microsomes (in words) [2]: readily degraded
CC(C)(C)[C@H](NC(=O)C(F)(F)F)C(=O)N1C[C@H]2[C@@H]([C@H]1C(=O)N[C@H](C#N)C[C@@H]1CCNC1=O)C2(C)C [nirmatrelvir] | – | – | remaining parent compound after 480 min [2]: ca. 80%
C[C@]12CC[C@H]3[C@@H](CCC4=CC(=O)CC[C@@]43C)[C@@H]1CC[C@@H]2O [testosterone, reference compound] | – | – | metabolic stability toward liver microsomes (in words) [2]: readily degraded
CCO[C@@H]1C[C@@H](C(=O)N[C@H](C=NO)C[C@@H]2CCNC2=O)N(C(=O)[C@@H](NC(=O)C(F)(F)F)C(C)(C)C)C1 [Compound 26, (2S,4R)−1‐{(S)−3,3‐Dimethyl‐2‐(2,2,2‐Trifluoroacetamido)Butanoyl}−4‐Ethoxy‐N‐[(S)−1‐(Hydroxyimino)−3‐[(S)−2‐Oxopyrrolidin‐3‐yl]Propan‐2‐yl]Pyrrolidine‐2‐Carboxamide] | 100 | 7.0 ± 0.02 | –
